The values that follow come from US5514706A, “Pharmaceutical compounds” (Eli Lilly and Company, priority 1994, dated 1996).

Format in all cases: cell-based
The test system of series [1] is plasminogen activator (PA) activity in bovine retinal capillary endothelial cells. The series is described as follows: Activation of retinal capillary endothelial cells by phorbol esters (PA activity). The note with it: for IC50: Bos taurus, Endothelial cell, dose-response curves of PA activity, read-out: IC50 from dose-response curves for phorbol ester (activation of PA activity). The source says:
(§1) Retinal capillary endothelial cell cultures were initiated from bovine eyes using a modification of the procedure of Buzney et al., Investigative Ophthalmology and Visual Sciences, 24: 470-483. Bovine eyes were transported on ice from a local abattoir. Extraocular muscle was trimmed from the eye, and the eye bisected posterior to the ora serrata. The vitreous and anterior portion of the eye were discarded, and the neuro-retina was gently dissected from the posterior eyecup. The retinas from 20 cattle were pooled and homogenized (5 strokes of a Teflon/glass homogenizer) in Hank's saline. The homogenate was passed through a 350μ filter to remove large debris and a 210μ filter to remove large vessels. The microvessels were trapped on a 85μ filter. The microvessels were resuspended in Hank's saline and digested with 7.5 mg/ml bacterial collagenase (Boeringher Mannhelm, Indianapolis) in Hank's saline for 1 hour at 37° C. The cells were pelleted by centrifugation (100 xg, 10 min), resuspended in 5 ml Endothelial Growth Media (EGM, Clonetics) and seeded in a gelatin-coated T-25 flask. After 24 hours the cells were trypsinized and replated in a gelatin coated T225. At 7 days and again at 14 days the cultures were labeled with acetylated lipoproteins labeled with the fluorescent probe (1,1'-dioctadecyl-3,3,3,3,-tetramethyl-indocarbocyanine perchlorate). The endothelial cells were separated from contaminating cell types using a fluorescent cell sorter as described in Voyta et al., J. Cell Biology. 99: 2034-2040.
(§2) Retinal capillary endothelial cells were seeded into 96-well plates and grown to confluence (10^5 cells/well) in EGM containing 10% fetal bovine serum (FBS). The media was changed to Dubecco's Modified Eagle's Medium with 10% fetal bovine serum 24 hours prior to the assay. The cells were treated with 50 nM 4-b phorbol 12,13-dibutyrate (4-b PDBu) to activate PKC and produce the activated endothelial phenotype characteristic of the diabetic state. The activated cells were treated with a series of dilutions of the test compounds. The phorbol esters and the test compounds were dissolved in DMSO before adding to the culture media. The cultures were incubated at 37° C. for 48 hours. Following treatment, the cells were lysed with 25 mM NH4 OH in 0.5% triton X-100.
(§3) The activation of bovine retinal capillary endothelial cells was monitored through alterations in cellular plasminogen activator (PA) activity in the cell lysates. Plasminogen activator activity was determined in a 50 μl aliquot of cell lysate using the synthetic substrate H-D-valyl-L-leucyl-lysine-p-nitroaniline dihydrochloride (Kabi).
There was also a two fold increase in cell number. […] Dose-response curves generated for 4-b PDBu and 4-b PMA indicated IC50 of 50 nH and 5 nH respectively. Elevated PA activity was observed only after prolonged (at least 8 hours) stimulation with phorbol esters. The PA activity continued to increase in a time and dose dependent manner for up to 72 hours, but constant stimulation with phorbol ester was required to maintain endothelial cell activation.

For series [2], the system named is bovine retinal capillary endothelial cells. Briefly: Retinal capillary endothelial cell number after phorbol ester treatment. The note with it: confluent cells, 48 hours.
Description: as §1, with “The endothelial cells were separated from contaminating cell types using a fluorescent cell sorter as described in Voyta et al., J. Cell Biology. 99: 2034-2040.” left out

In series [3] the test system is plasminogen activator (PA) activity in bovine retinal capillary endothelial cells. The series is described as follows: Inhibition of phorbol ester-induced activation of retinal capillary endothelial cells (plasminogen activator (PA) activity in cell lysates). The following applies: Bos taurus, activated with 50 nM 4-b PDBu, 48 hours, cell lysate, read-out: PA ED50.
Description: as §1, §2, §3
Cell toxicity was determined in a parallel series of cultures using a neutral red assay. Borenfreund, E. and Puerner, J, J. Tiss. Cult. Meth. 9:7 (1984). […] Table 1 discloses the PA ED50 value in this model for representative compounds. The in vitro endothelial cell model was correlated with in situ and in vivo activities by the following models.

Series [4] relates to cultured smooth cells derived from rabbit aorta. Briefly: 3H-thymidine incorporation (DNA synthesis) in vascular smooth muscle cells stimulated with platelet-derived growth factor. The note with it: Oryctolagus cuniculus; 20 ng/ml platelet-derived growth factor, 24 hours. Here is the method: Cells are obtained by explant method as described in Ross, J. Of Cell Bio. 50: 172 (1971). Cells are plated in 96 well microtiter plates for five days. The cultures become confluent and growth arrested. The cells are then transferred to Dulbecco's Modified Eagle's Medium (DMEM) containing 0.5-2% platelet poor plasma, 2 mM L-glutamine, 100 U/ml penicillin, 100 μg ml streptomycin, 1 μ/ml ^3 H-thymidine, 20 ng/ml platelet-derived growth factor and varying concentrations of the compounds. Stock solution of compounds is prepared in dimethyl sulphoxide and then diluted to appropriate concentration (0.01-10 μg/ml) in the above assay medium. Cells are then incubated at 37° C. for 24 hours under 5% CO2 /95% air. At the end of 24 hours, the cells are fixed in methanol. ^3 H thymidine incorporation in DNA was then determined by scintillation counting as described in Bonin et al., Exp. Cell Res. 181:475-482 (1989).
Table 1 discloses the IC50 value of representative compounds tested in the ^3 H-thymidine incorporation model. Thus the invention specifically provides a method of treating restenosis, which comprises administering to a patient in need of treatment an effective amount of a compound of the formula (I).
For orientation: Dividing cells build labelled thymidine or BrdU into new DNA.

In the case of `CCCC(=O)O[C@@H]1[C@@H](C)[C@@]2(O)[C@@H](C=C(CO)C[C@@]3(O)C(=O)C(C)=C[C@@H]23)[C@@H]2C(C)(C)[C@]12OC(=O)CCC` [4-a PDBu], the “increase in activation occurred only after treatment with phorbol esters known to activate PKC (yes/no)” value (shortened to “increase in activation occurred only … (yes/no)”) in series [1] was “not”. Consider `CCCC(=O)O[C@@H]1[C@@H](C)[C@@]2(O)[C@@H](C=C(CO)C[C@]3(O)C(=O)C(C)=C[C@@H]23)[C@@H]2C(C)(C)[C@]12OC(=O)CCC` [4-b PDBu, 4-b phorbol 12,13-dibutyrate], for which, in series [1], the “increase in activation occurred only … (yes/no)” value is reported as “increase in activation occurred” and the IC50 is 50 nM. Moreover, in series [1] (confluent cells, 48 hours), the “increase in PA activity associated with the cell layer” value came to 12 fold and the “increase in PA released into the media” value was 12 fold. For the same molecule, the “increase in cell number” value in series [2] is “two”. Turning to `CCCCCCCCCCCCCC(=O)O[C@@H]1[C@@H](C)[C@@]2(O)[C@@H](C=C(CO)C[C@]3(O)C(=O)C(C)=C[C@@H]23)[C@@H]2C(C)(C)[C@]12OC(C)=O` [4-b PMA], in series [1], the “increase in activation occurred only … (yes/no)” value was “increase in activation occurred” and the IC50 turned out to be 5 nM.

For the molecule `N#CC1=C(N)Oc2ccc3ccccc3c2C1c1cccc([N+](=O)[O-])c1` (stereo not drawn) [Example 2, 2-Amino-4-(3-nitrophenyl) -4H-naphtho 2,1-b!pyran-3-carbonitrile], the values for the IC50 in series [3] and in series [4] were 700 nM and 2500 nM, respectively. As for `N#CC1=C(N)Oc2ccc3ccccc3c2C1c1ccc([N+](=O)[O-])cc1` (stereo not drawn) [Example 3, 2-Amino-4-(4-nitrophenyl)-4H-naphtho 2,1-b!pyran-3-carbonitrile], the values for the IC50 in series [3] and in series [4] were > 20000 nM and 8000 nM, respectively.

With `N#CC1=C(N)Oc2ccc3ccccc3c2C1c1ccccc1[N+](=O)[O-]` (stereo not drawn) [Example 4, 2-Amino-4-(2-nitrophenyl)-4H-naphtho 2,1-b!pyran-3-carbonitrile], the IC50 in series [3] is > 20000 nM; in series [4] it was > 30000 nM.

With `N#CC1=C(N)Oc2ccc3ccccc3c2C1c1cccc(Br)c1` (stereo not drawn) [Example 5, 2-Amino-4-(3-bromophenyl)-4H-naphtho 2,1-b!pyran-3-carbonitrile], the IC50 was 700 nM in series [3] and 1800 nM in series [4]. The matching figures for `N#CC1=C(N)Oc2ccc3ccccc3c2C1c1cccc(Cl)c1` (stereo not drawn) [Example 6, 2-Amino-4-(3-chlorophenyl)-4H-naphtho 2,1-b!pyran-3-carbonitrile]: 1000 nM and 2000 nM.

Molecule `N#CC1=C(N)Oc2ccc3ccccc3c2C1c1cccc(F)c1` (stereo not drawn) [Example 7, 2-Amino-4-(3-fluorophenyl)-4H-naphtho 2,1-b!pyran-3-carbonitrile] yielded an IC50 in series [4] of 2000 nM. Regarding `N#CC1=C(N)Oc2ccc3ccccc3c2C1c1ccc(F)cc1` (stereo not drawn) [Example 8, 2-Amino-4-(4-fluorophenyl)-4H-naphtho 2,1-b!pyran-3-carbonitrile], the IC50 turned out to be 9000 nM in series [3] and 1500 nM in series [4]. Regarding `N#CC1=C(N)Oc2ccc3ccccc3c2C1c1ccccc1F` (stereo not drawn) [Example 9, 2-Amino-4-(2-fluorophenyl) -4H-naphtho 2,1-b!pyran-3-carbonitrile], the IC50 in series [3] is > 20000 nM; in series [4], > 3000 nM. The matching figures for `N#CC1=C(N)Oc2ccc3ccccc3c2C1c1cccc(C(F)(F)F)c1` (stereo not drawn) [Example 10, 2-Amino-4-3-(trifluoromethyl)phenyl!-4H-naphtho 2,1-b!pyran-3-carbonitrile]: 50 nM and 500 nM. On to `N#CC1=C(N)Oc2ccc3cc(C(=O)O)ccc3c2C1c1cccc([N+](=O)[O-])c1` (stereo not drawn) [Example 11, 2-Amino-3-cyano-4-(3-nitrophenyl)-4H-naphtho 2,1-b!pyran-7-carboxylic acid], for which the values for the IC50 in series [3] and in series [4] were > 20000 nM and > 30000 nM, respectively. On to `N#CC1=C(N)Oc2c(O)cc3ccccc3c2C1c1cccc([N+](=O)[O-])c1` (stereo not drawn) [Example 12, 2-Amino-10-hydroxy-4-(3-nitrophenyl)-4H-naphtho 2,1-b!pyran-3-carbonitrile], for which the IC50 came out at 650 nM in series [3] and 3000 nM in series [4]. With `COc1ccc2ccc3c(c2c1)C(c1cccc([N+](=O)[O-])c1)C(C#N)=C(N)O3` (stereo not drawn) [Example 13, 2-Amino-6-methoxy-4-(3-nitrophenyl)-4H-naphtho 2,1-b!pyran-3-carbonitrile], the IC50 in series [3] is > 20000 nM; in series [4], > 3000 nM. With `COc1cccc(C2C(C#N)=C(N)Oc3ccc4cc(C(=O)O)ccc4c32)c1` (stereo not drawn) [Example 14, 2-Amino-3-cyano-4-(3-methoxyphenyl)-4H-naphtho 2,1-b!pyran-7-carboxylic acid], the IC50 in series [3] is > 100000 nM. On the same count and under the same terms, in the case of `N#CC1=C(N)Oc2ccc3cc(C(=O)O)ccc3c2C1c1cccc(C(=O)O)c1` (stereo not drawn) [Example 15, 2-Amino-3-cyano-4-(3-carboxyphenyl)-4H-naphtho 2,1-b!pyran-7-carboxylic acid] it was 5000 nM; in that of `N#CC1=C(N)Oc2ccc3cc(C(=O)O)ccc3c2C1c1cccc(OC(F)(F)F)c1` (stereo not drawn) [Example 16, 2-Amino-3-cyano-4-3-(trifluoromethoxy)phenyl!-4H-naphtho 2,1-b!pyran-7-carboxylic acid], > 100000 nM. Turning to `CCOC=NC1=C(C#N)C(c2cccc([N+](=O)[O-])c2)c2c(ccc3cc(C(=O)OCC)ccc23)O1` (stereo not drawn) [Example 17, Ethyl 3-cyano-2-ethoxymethyleneamino-4-(3-nitrophenyl)-4H-naphtho 2,1-b!pyran-7-carboxylate], the IC50 in series [3] came out at 8000 nM; in series [4], 6000 nM.
